The text below walks through data of ChEMBL document CHEMBL1151652, “Constituents of Erysimum inconspicuum. Two sulfur-containing lactone compounds” (1985).

For the assay, the system named is KB. Nature of the assay: Cytotoxicity against human KB cells. It counts as functional. To be noted: read-out: ED50 (the source's name).

Values after ≈ are worked out from the molar mass of the structure shown.

Consider `CS(=O)(=O)CC[C@H]1CCC(=O)O1` [ERYSULFONE], for which the EC50 is 21 µg/mL (≈ 109 µM). In the case of `C[S+]([O-])CC[C@H]1CCC(=O)O1` (stereo partly drawn) [ERYSULFOXIDE], the EC50 worked out at 2.3 µg/mL (≈ 13.1 µM). In the case of `C[C@]12CC[C@H]3[C@@H](CC[C@]4(O)C[C@@H](O)CC[C@]34C=O)[C@@]1(O)CC[C@@H]2C1=CC(=O)OC1` [STROPHANTHIDIN], the EC50 worked out at 0.44 µg/mL (≈ 1.09 µM).
